Data as given in patent US20230286973A1, “PROTEIN SECRETION INHIBITORS” (KEZAR LIFE SCIENCES, priority 2020, published 2023).

Legend:
[1] = tested on: HER3-ss+4aa/Gaussia Luciferase; assay: Dox-Induced Her3-ss-Gluc Assay; assay type: cell-based; settings: 24 hr Dox induction; 293FRT/TO cells; read-out: 24 hr Dox Inducible Her3(ss + 4)Gluc 293FRT/TO: Mean IC50
Summary of the method: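 Expression of a Gaussia luciferase reporter carrying the HER3 signal sequence plus 4 amino acids is induced by doxycycline in stably transfected Flp-In 293 T-REx cells. Compounds are added with doxycycline at 37° C., 5% CO2. Undefined stereocentres denote stereoisomer mixtures.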

[2] = tested on: TNFα-FL/Gaussia Luciferase; assay: Dox Induced TNFα-FL-Gluc Assay; assay type: cell-based; settings: for IC50: 24 hr Dox induction, 293FRT/TO cells, read-out: 24 hr Dox Inducible TNFaFLGluc 293FRT/TO: Mean IC50; for 24 hr Dox Inducible TNFaFLGluc 293FRT/TO: TNF/PD1: ratio of TNFaFLGluc IC50 to PD1ssGluc IC50
Summary of the method: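 Cells are seeded one day ahead, then treated with compound plus doxycycline at 37 °C, 5% CO2. The stable Flp-In 293 T-REx line expresses full-length TNFα (amino acids 1-233) with Gaussia luciferase fused to its 3′ end, inducibly via T-REx.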

[3] = Liver Microsome Stability Assay (monkey); settings: monkey liver microsomes, with NADPH, 1.0 uM compound
Method: (§1) Stability of a compound was assessed in the presence of liver microsomes from various sources—mouse, rat, monkey and human liver microsomes. 1.0 uM compound, 0.4% DMSO in 0.1 M Potassium Phosphate with 1.0 mg/mL liver microsomes, were incubated at 37° C. with or without 1 mM NADPH. The samples were quenched at 0, and 30 minutes.

[4] = tested on: IL-2-FL/Gaussia Luciferase; assay: Dox Induced IL2-FL-Gluc Assay; assay type: cell-based; settings: for IC50: 24 hr Dox induction, 293FRT/TO cells, read-out: 24 hr Dox Inducible IL2FLGluc 293FRT/TO: Mean IC50; for 24 hr Dox Inducible IL2FLGluc 293FRT/TO: IL2/PD1: ratio of IL2FLGluc IC50 to PD1ssGluc IC50
Summary of the method: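 Reporter is Gaussia luciferase fused to the 3′ end of full-length IL-2 (aa 1-153), expressed from a doxycycline-inducible T-REx construct in stably selected Flp-In 293 cells. Compounds were co-added with doxycycline and incubated at 37° C, 5% CO2.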

[5] = tested on: PD1-ss+10aa/Gaussia Luciferase; assay: Dox-Induced PD1-ss-Gluc Assay; assay type: cell-based; settings: 24 hr Dox induction; 293FRT/TO cells; read-out: 24 hr Dox Inducible PD1ssGluc 293FRT/TO: Mean IC50
Summary of the method: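 Flp-In 293 T-REx cells stably carrying a doxycycline-inducible Gaussia luciferase fused to the PD1 signal sequence plus 10 aa were plated the day before. Compound dilutions in DMSO/media containing doxycycline were then added and incubated at 37 °C, 5% CO2. Data for undefined stereochemistry refer to stereoisomer mixtures.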

[6] = Liver Microsome Stability Assay (human); settings: human liver microsomes, with NADPH, 1.0 uM compound
Method: as §1

[7] = tested on: multiple myeloma cell line NCI-H929; assay: H929 Cell Viability Assay; assay type: cell-based, human; settings: Homo sapiens, NCI-H929, 48 h, NCI-H929 cells, Celltiter-Glo
Summary of the method: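 Plate the myeloma cells in RPMI 1640 with 10% FBS, add serially diluted compound, incubate for 48 hours at 37° C, then add CellTiter-Glo and read luciferase signal.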

[8] = tested on: multiple myeloma cell line U266B1; assay: U266 Cell Viability Assay; assay type: cell-based, human; settings: Homo sapiens, U-266, 48 h, U266B1 cells, Celltiter-Glo
Summary of the method: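 48 h treatment, 37° C./5% CO2, RPMI 1640 + 10% FBS; viability by CellTiter-Glo luminescence.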

[9] = Liver Microsome Stability Assay (mouse); settings: mouse liver microsomes, with NADPH, 1.0 uM compound
Method: as §1

[10] = Liver Microsome Stability Assay (rat); settings: rat liver microsomes, with NADPH, 1.0 uM compound
Method: as §1

Row | SMILES | IC50 [1] | IC50 [2] | 24 hr Dox Inducible TNFaFLGluc 293FRT/TO: TNF/PD1 [2] | Liver Microsome Stability (Multiple Species): Monkey - % Remaining after 30 min w/NADPH [3] | IC50 [4] | 24 hr Dox Inducible IL2FLGluc 293FRT/TO: IL2/PD1 [4] | IC50 [5] | Liver Microsome Stability (Multiple Species): Human - % Remaining after 30 min w/NADPH [6] | EC50 [7] | EC50 [8] | Liver Microsome Stability (Multiple Species): Mouse - % Remaining after 30 min w/NADPH [9] | Liver Microsome Stability (Multiple Species): Rat - % Remaining after 30 min w/NADPH [10]
1 | CC1CCn2cnc(/C=C/c3csc(NC(=O)c4cccn4Cc4ccnc(F)c4)n3)c2C1 (stereo not drawn) [Compound B97, (E)-1-((2-fluoropyridin-4-yl)methyl)-N-(4-(2-(7-methyl-5,6,7,8-tetrahydroimidazo[1,5-a]pyridin-1-yl)vinyl)thiazol-2-yl)-1H-pyrrole-2-carboxamide] | 4.79 µM | > 25 µM | >103 | 0.13% | 7.51 µM | 31 | 0.244 µM | 0.3% | > 25 µM | > 25 µM | 13.8% | 10.8%
2 | CC1CCc2c(/C=C/c3csc(NC(=O)c4cccn4Cc4ccnc(F)c4)n3)ncn2C1 (stereo not drawn) [Compound B98, (E)-1-((2-fluoropyridin-4-yl)methyl)-N-(4-(2-(6-methyl-5,6,7,8-tetrahydroimidazo[1,5-a]pyridin-1-yl)vinyl)thiazol-2-yl)-1H-pyrrole-2-carboxamide] | 1.59 µM | > 25 µM | >814 | 0.72% | 2.29 µM | 74 | 0.0307 µM | 0.2% | > 25 µM | > 25 µM | 6.81% | 6.91%
3 | Cc1cc(C(=O)Nc2nc(/C=C/c3cn(C(C)C)cn3)cs2)n(Cc2ccnc(F)c2)c1 [Compound B99, (E)-1-((2-fluoropyridin-4-yl)methyl)-N-(4-(2-(1-isopropyl-1H-imidazol-4-yl)vinyl)thiazol-2-yl)-4-methyl-1H-pyrrole-2-carboxamide] | 10.1 µM | > 25 µM | >28.4 | 2.99% | > 25 µM | >28 | 0.88 µM | 4.91% | > 25 µM | > 25 µM | 49.5% | 49.7%
4 | CC1CCCc2c(/C=C/c3csc(NC(=O)c4cccn4Cc4ccnc(F)c4)n3)ncn21 (stereo not drawn) [Compound B101, (E)-1-((2-fluoropyridin-4-yl)methyl)-N-(4-(2-(5-methyl-5,6,7,8-tetrahydroimidazo[1,5-a]pyridin-1-yl)vinyl)thiazol-2-yl)-1H-pyrrole-2-carboxamide] | 4.28 µM | 19 µM | 1640 | 0.25% | 6.53 µM | 560 | 0.0116 µM | 0.38% | 15.3 µM | 19.5 µM | 6.67% | 2.51%
5 | CC1CCCn2cnc(/C=C/c3csc(NC(=O)c4cccn4Cc4ccnc(F)c4)n3)c21 (stereo not drawn) [Compound B102, (E)-1-((2-fluoropyridin-4-yl)methyl)-N-(4-(2-(8-methyl-5,6,7,8-tetrahydroimidazo[1,5-a]pyridin-1-yl)vinyl)thiazol-2-yl)-1H-pyrrole-2-carboxamide] | 4.56 µM | > 25 µM | >681 | 0.85% | 6.36 µM | 170 | 0.0367 µM | 0.71% | 21.3 µM | > 25 µM | 9.83% | 6.8%
6 | CC(C)n1cc(/C=C/c2csc(NC(=O)c3cccn3Cc3ccnc(F)c3)n2)nc1CO [Compound B103, (E)-1-((2-fluoropyridin-4-yl)methyl)-N-(4-(2-(2-(hydroxymethyl)-1-isopropyl-1H-imidazol-4-yl)vinyl)thiazol-2-yl)-1H-pyrrole-2-carboxamide] | > 25 µM | > 25 µM | >2.49 | 1.64% | > 25 µM | >2.5 | 10.1 µM | 1.87% | > 25 µM | > 25 µM | 28.7% | 19.5%
7 | O=C(Nc1nc(/C=C/c2cn(-c3ccccc3)cn2)cs1)c1cccn1Cc1ccnc(F)c1 [Compound B104, (E)-1-((2-fluoropyridin-4-yl)methyl)-N-(4-(2-(1-phenyl-1H-imidazol-4-yl)vinyl)thiazol-2-yl)-1H-pyrrole-2-carboxamide] | 0.785 µM | 4.99 µM | 809 | 0.14% | 1.28 µM | 210 | 0.00616 µM | 0.21% | > 25 µM | > 25 µM | 4.41% | 2.24%
8 | O=C(Nc1nc(/C=C/c2cn(Cc3ccccc3)cn2)cs1)c1cccn1Cc1ccnc(F)c1 [Compound B105, (E)-N-(4-(2-(1-benzyl-1H-imidazol-4-yl)vinyl)thiazol-2-yl)-1-((2-fluoropyridin-4-yl)methyl)-1H-pyrrole-2-carboxamide] | 2.24 µM | > 25 µM | >1050 | 0.05% | 2.84 µM | 120 | 0.0238 µM | 0.11% | > 25 µM | > 25 µM | 4.32% | 2.65%
